Measured values reported in ChEMBL document CHEMBL2040800 (J Med Chem, 2012).
pIC50: −log10 of the molar value. Values after ≈ are worked out from the molar mass of the structure shown. Active and inactive are the calls of the source. The calls are words filed in the database; no cut-off is given here.

Key:
Plasmodium falciparum [1] = test: Antimalarial activity against chloroquine-resistant Plasmodium falciparum K1 after 24 hrs by hypoxanthine incorporation assay; assay type: functional, organism-based; details: K1, 24 h
Plasmodium berghei [2] = test: Antimalarial activity against Plasmodium berghei ANKA expressing GFP infected in Sprague-Dawley rat assessed as mean survival days of host at 50 mg/kg, po administered as 4 doses; assay type: functional
[3] = Half life in human liver microsomes at 1 uM; assay type: ADME, Microsome
[4] = Partition coefficient, log D of the compound at pH 7.4 by phase gradient HPLC analysis; assay type: physicochemical; details: octanol/water
[5] = Kinetic solubility of the compound in phosphate buffer after 30 mins by nephelometry at pH 6.5; assay type: physicochemical; details: read-out: Kinetic_solubility
Plasmodium berghei [6] = test: Antimalarial activity against Plasmodium berghei ANKA expressing GFP infected in Sprague-Dawley rat assessed as reduction in parasitemia at 50 mg/kg, po administered as 4 doses measured on day 4 post-infection by flow cytometry; assay type: functional; set-up: scale not given: the % may be the effect or the level left
[7] = Intrinsic clearance in human liver microsomes at 1 uM up to 60 mins; assay type: ADME, Microsome; details: read-out: CLH
Plasmodium falciparum [8] = test: Antimalarial activity against chloroquine-sensitive Plasmodium falciparum NF54 after 24 hrs by hypoxanthine incorporation assay; assay type: functional, organism-based; details: NF54, 24 h
Plasmodium berghei [9] = test: Antimalarial activity against Plasmodium berghei ANKA expressing GFP infected in Sprague-Dawley rat assessed as reduction in parasitemia at 10 mg/kg, po administered as single dose measured on day 3 post-infection by flow cytometry; assay type: functional; set-up: scale not given: the % may be the effect or the level left
Plasmodium berghei [10] = test: Antimalarial activity against Plasmodium berghei ANKA expressing GFP infected in Sprague-Dawley rat assessed as reduction in parasitemia at 30 mg/kg, po administered as single dose measured on day 3 post-infection by flow cytometry; assay type: functional; set-up: scale not given: the % may be the effect or the level left
Plasmodium berghei [11] = test: Antimalarial activity against Plasmodium berghei ANKA expressing GFP infected in Sprague-Dawley rat assessed as mean survival days of host at 3 mg/kg, po administered as single dose; assay type: functional
Plasmodium berghei [12] = test: Antimalarial activity against Plasmodium berghei ANKA expressing GFP infected in Sprague-Dawley rat assessed as reduction in parasitemia at 3 mg/kg, po administered as single dose measured on day 3 post-infection by flow cytometry; assay type: functional; set-up: scale not given: the % may be the effect or the level left
Plasmodium berghei [13] = test: Antimalarial activity against Plasmodium berghei ANKA expressing GFP infected in Sprague-Dawley rat assessed as mean survival days of host at 10 mg/kg, po administered as single dose; assay type: functional
Plasmodium berghei [14] = test: Antimalarial activity against Plasmodium berghei ANKA expressing GFP infected in Sprague-Dawley rat assessed as mean survival days of host at 30 mg/kg, po administered as single dose; assay type: functional
Plasmodium berghei [15] = test: Antimalarial activity against Plasmodium berghei ANKA expressing GFP infected in Sprague-Dawley rat assessed as mean survival days of host at 100 mg/kg, po administered as single dose; assay type: functional
Plasmodium falciparum [16] = test: Antimalarial activity against ring stage Plasmodium falciparum Dd2 at 1.82 uM after 72 hrs by DAPI-staining based confocal microscopy; assay type: functional
Plasmodium falciparum [17] = test: Antimalarial activity against ring stage Plasmodium falciparum 3D7 at 1.82 uM after 72 hrs by DAPI-staining based confocal microscopy; assay type: functional
[18] = Plasma protein binding in human by reverse phase gradient HPLC analysis; assay type: ADME, cell-free; details: read-out: PPB (converted)
Plasmodium berghei [19] = test: Antimalarial activity against Plasmodium berghei ANKA expressing GFP infected in Sprague-Dawley rat assessed as reduction in parasitemia at 100 mg/kg, po administered as single dose measured on day 3 post-infection by flow cytometry; assay type: functional; set-up: scale not given: the % may be the effect or the level left
Plasmodium berghei [20] = test: Antimalarial activity against Plasmodium berghei ANKA expressing GFP infected in Sprague-Dawley rat assessed as host survival at 30 mg/kg, po administered as single dose measured 6 days post-infection; assay type: functional, organism-based; set-up: dose 30 mg/kg
Plasmodium berghei [21] = test: Antimalarial activity against Plasmodium berghei ANKA expressing GFP infected in Sprague-Dawley rat assessed as total cure from parasite at 50 mg/kg, po administered as 4 doses measured on day 30 post-infection by flow cytometry; assay type: functional, organism-based; set-up: dose 50 mg/kg
Plasmodium berghei [22] = test: Antimalarial activity against Plasmodium berghei ANKA expressing GFP infected in Sprague-Dawley rat assessed as host survival at 3 mg/kg, po administered as single dose measured 6 days post-infection; assay type: functional, organism-based; set-up: dose 3 mg/kg

SMILES | pIC50 (Plasmodium falciparum [1]) | half-life at 1 µM [3] | chromatographic logD [4] | solubility kinetic at 0.5 h [5] | microsomal CLint at 1 µM [7] | pIC50 (Plasmodium falciparum [8]) | fraction unbound [18] | other results
CS(=O)(=O)c1ccc(-c2cnc(N)c(-c3ccc(S(C)(=O)=O)cc3)c2)cc1 | 7.10 | > 5.83 h | 2 | 6.3 µg/mL (≈ 15.7 µM) | < 5 µL/min/mg | 7.10 | – | MSD (Plasmodium berghei [2]): 15 days; Activity (Plasmodium berghei [6]): 99.6%
CCN(CC)CCCC(C)Nc1ccnc2cc(Cl)ccc12 (stereo not given) [CHLOROQUINE] | – | – | – | – | – | – | – | Activity (Plasmodium berghei [9]): 99.5%; Activity (Plasmodium berghei [10]): 99.7%; MSD (Plasmodium berghei [11]): 7 days; Activity (Plasmodium berghei [12]): 83%; MSD (Plasmodium berghei [13]): 7 days; MSD (Plasmodium berghei [14]): 9 days; MSD (Plasmodium berghei [15]): 12 days
CS(=O)(=O)c1ccc(-c2cnc(N)c(-c3cnc(N)nc3)c2)cc1 | 6.92 | – | – | – | – | 6.92 | – | –
COc1cc(-c2cc(-c3ccc(S(C)(=O)=O)cc3)cnc2N)ccc1O | 7.31 | 1.72 h | 1.9 | 6.3 µg/mL (≈ 17 µM) | 17 µL/min/mg | 7.31 | 0.172 | Activity (Plasmodium falciparum [16]): >80%; Activity (Plasmodium falciparum [17]): >80%
Cc1ccc(-c2cc(-c3ccc(S(C)(=O)=O)cc3)cnc2N)c2cccnc12 | 7.48 | 1.77 h | 2.6 | 6.3 µg/mL (≈ 16.2 µM) | 16 µL/min/mg | 7.44 | 0.056 | –
CS(=O)(=O)c1ccc(-c2cnc(N)c(-c3ccoc3)c2)cc1 | 5.95 | – | – | – | – | 5.95 | – | –
CS(=O)(=O)c1ccc(-c2cnc(N)c(-c3ccc(-n4cccn4)cc3)c2)cc1 | 6.66 | – | – | – | – | 6.64 | – | –
CS(=O)(=O)c1ccc(-c2cnc(N)c(-c3cccc(OC(F)(F)F)c3)c2)cc1 | 6.74 | – | – | – | – | 6.72 | – | –
CS(=O)(=O)c1ccc(-c2cnc(N)c(-c3cccnc3)c2)cc1 | 6.09 | – | – | – | – | 6.24 | – | –
CS(=O)(=O)c1ccc(-c2cnc(N)c(-c3ccc4nccnc4c3)c2)cc1 | 6.23 | – | – | – | – | 6.21 | – | –
CS(=O)(=O)c1ccc(-c2cnc(N)c(-c3cccc(C(=O)NCCO)c3)c2)cc1 | 6.20 | – | – | – | – | 6.22 | – | –
CS(=O)(=O)c1ccc(-c2cnc(N)c(-c3ccc(C(F)(F)F)cc3Cl)c2)cc1 | 6.09 | – | – | – | – | 6.09 | – | –
CS(=O)(=O)c1ccc(-c2cnc(N)c(-c3ccc(N4CCOCC4)cc3)c2)cc1 | 5.62 | – | – | – | – | 5.61 | – | –
CN(C)CCNC(=O)c1ccc(-c2cc(-c3cc(F)c(F)c(F)c3)cnc2N)cc1 | – | – | – | – | – | – | – | Activity (Plasmodium falciparum [16]): 50%; Activity (Plasmodium falciparum [17]): 50%
COc1ccc(-c2cnc(N)c(-c3ccc(O)c(OC)c3)c2)cc1 | – | – | – | – | – | – | – | Activity (Plasmodium falciparum [16]): 50%; Activity (Plasmodium falciparum [17]): 50%
CS(=O)(=O)c1ccc(-c2cnc(N)c(-c3ccc(C(F)(F)F)c(F)c3)c2)cc1 | 7.24 | 2.05 h | 3.1 | 1.6 µg/mL (≈ 3.9 µM) | 14 µL/min/mg | 7.11 | 0.052 | –
CS(=O)(=O)c1ccc(-c2cnc(N)c(-c3ccc(C(N)=O)cc3)c2)cc1 | 7.52 | > 5.83 h | 1.5 | 25 µg/mL (≈ 68 µM) | < 5 µL/min/mg | 7.52 | 0.216 | Activity (Plasmodium berghei [10]): <40%; MSD (Plasmodium berghei [2]): 7 days; Activity (Plasmodium berghei [6]): 66%; Activity (Plasmodium berghei [19]): 64%; MSD (Plasmodium berghei [14]): 3 days; MSD (Plasmodium berghei [15]): 7 days; Activity (Plasmodium berghei [20]): inactive

SMILES | pIC50 (Plasmodium falciparum [1]) | half-life at 1 µM [3] | chromatographic logD [4] | solubility kinetic at 0.5 h [5] | microsomal CLint at 1 µM [7] | pIC50 (Plasmodium falciparum [8]) | fraction unbound [18] | other results
Cc1nc2cc(-c3cc(-c4ccc(S(C)(=O)=O)cc4)cnc3N)ccc2s1 | 6.48 | – | – | – | – | 6.41 | – | –
CNC(=O)c1ccc(-c2cc(-c3ccc(S(C)(=O)=O)cc3)cnc2N)cc1 | 7.15 | > 5.83 h | 1.7 | 25 µg/mL (≈ 65.5 µM) | < 5 µL/min/mg | 7.10 | 0.182 | Activity (Plasmodium berghei [10]): 77%; MSD (Plasmodium berghei [2]): 9 days; Activity (Plasmodium berghei [6]): 99.7%; Activity (Plasmodium berghei [19]): 98%; MSD (Plasmodium berghei [14]): 7 days; MSD (Plasmodium berghei [15]): 6 days
CS(=O)(=O)c1ccc(-c2cnc(N)c(-c3ccc(F)nc3)c2)cc1 | 6.30 | 4.12 h | 1.1 | 25 µg/mL (≈ 72.8 µM) | < 7 µL/min/mg | 6.19 | 0.431 | –
CS(=O)(=O)c1ccc(-c2cnc(N)c(-c3ccc4nonc4c3)c2)cc1 | 6.28 | – | – | – | – | 6.33 | – | –
CS(=O)(=O)c1ccc(-c2cnc(N)c(-c3cccc(C(F)(F)F)c3)c2)cc1 | 7.05 | > 4.17 h | 3.3 | 3.1 µg/mL (≈ 7.9 µM) | < 7 µL/min/mg | 6.96 | 0.059 | –
CS(=O)(=O)c1ccc(-c2cnc(N)c(-c3ccc(C#N)cc3)c2)cc1 | 6.82 | > 5.83 h | 2.4 | 1.6 µg/mL (≈ 4.58 µM) | < 5 µL/min/mg | 6.80 | – | Activity (Plasmodium berghei [10]): 99.1%; MSD (Plasmodium berghei [2]): >30 days; Activity (Plasmodium berghei [6]): 99.7%; Activity (Plasmodium berghei [19]): >99.4%; MSD (Plasmodium berghei [14]): 10 days; MSD (Plasmodium berghei [15]): 14 days
CS(=O)(=O)c1ccc(-c2cnc(N)c(-c3ccnc(C(F)(F)F)c3)c2)cc1 | 6.81 | – | – | – | – | 6.74 | – | –
COc1ncccc1-c1cc(-c2ccc(S(C)(=O)=O)cc2)cnc1N | 5.96 | – | – | – | – | 5.91 | – | –
Nc1ncc(-c2ccc(Cl)cc2)cc1-c1cccc(CO)c1 | – | – | – | – | – | – | – | Activity (Plasmodium falciparum [16]): 50%; Activity (Plasmodium falciparum [17]): 50%
CS(=O)(=O)c1ccc(-c2cnc(N)c(-c3ccc(CO)nc3)c2)cc1 | 6.77 | > 4.17 h | 1.2 | 25 µg/mL (≈ 70.3 µM) | < 7 µL/min/mg | 6.77 | 0.541 | –
COc1ncc(-c2cc(-c3ccc(S(C)(=O)=O)cc3)cnc2N)cc1Cl | 5.67 | – | – | – | – | 5.65 | – | –
CS(=O)(=O)c1ccc(-c2cnc(N)c(-c3ccc(OCCN4CCCC4)cc3)c2)cc1 | 5.67 | – | – | – | – | 5.68 | – | –
CS(=O)(=O)c1ccc(-c2cnc(N)c(-c3ccc(N4CCCC4)nc3)c2)cc1 | 6.27 | – | – | – | – | 6.34 | – | –
Cc1ccc(-c2cc(-c3ccc(S(C)(=O)=O)cc3)cnc2N)cc1C(F)(F)F | 7.72 | 1.25 h | 3.6 | 1.6 µg/mL (≈ 3.94 µM) | 23 µL/min/mg | 7.68 | 0.031 | –
COc1ncc(-c2cc(-c3ccc(S(C)(=O)=O)cc3)cnc2N)cn1 | 6.55 | – | – | – | – | 6.59 | – | –
Cc1ccc(-c2cc(-c3ccc(S(C)(=O)=O)cc3)cnc2N)cn1 | 7.54 | > 5.83 h | 1.8 | 50 µg/mL (≈ 147 µM) | < 5 µL/min/mg | 7.55 | 0.256 | Activity (Plasmodium berghei [10]): 99.2%; MSD (Plasmodium berghei [2]): >30 days; MSD (Plasmodium berghei [11]): 3 days; Activity (Plasmodium berghei [12]): <40%; Activity (Plasmodium berghei [6]): 99.8%; MSD (Plasmodium berghei [14]): 8 days; Activity (Plasmodium berghei [21]): Active; Activity (Plasmodium berghei [22]): inactive
